What all share (type): functional
For one experiment, the system named is Pseudomonas aeruginosa. Briefly: Antibacterial activity against Pseudomonas aeruginosa ATCC27853 assessed as growth inhibition incubated at 37 degC for 24 hrs by micro broth dilution method. To be noted: ATCC27853, 24 h. For orientation: In broth dilution the organism is exposed to a series of concentrations in liquid medium.
The subject of experiment [1] is Staphylococcus aureus. Briefly: Antibacterial activity against Staphylococcus aureus ATCC25923 assessed as growth inhibition incubated at 37 degC for 24 hrs by micro broth dilution method. To be noted: ATCC25923, 24 h.
Experiment [2] deals with Staphylococcus aureus. The experiment in a line: Antibacterial activity against methicillin resistant Staphylococcus aureus N315 assessed as growth inhibition incubated at 37 degC for 24 hrs by micro broth dilution method. To be noted: N315, 24 h.
Another experiment has as its system Bacillus subtilis. Briefly: Antibacterial activity against Bacillus subtilis ATCC6633 assessed as growth inhibition incubated at 37 degC for 24 hrs by micro broth dilution method. To be noted: ATCC6633, 24 h.
The nature of experiment [3]: Antibacterial activity against Eberthella typhosa ATCC14028 assessed as growth inhibition incubated at 37 degC for 24 hrs by micro broth dilution method. To be noted: ATCC14028, 24 h.
The next experiment has as its system Escherichia coli. The experiment in a line: Antibacterial activity against Escherichia coli JM109 assessed as growth inhibition incubated at 37 degC for 24 hrs by micro broth dilution method. The note with it: JM109, 24 h.
Experiment [4] is described as follows: Antibacterial activity against Bacillus proteus ATCC13315 assessed as growth inhibition incubated at 37 degC for 24 hrs by micro broth dilution method. To be noted: ATCC13315, 24 h.
In a further experiment the test system is Micrococcus luteus. Briefly: Antibacterial activity against Micrococcus luteus ATCC4698 assessed as growth inhibition incubated at 37 degC for 24 hrs by micro broth dilution method. The note with it: ATCC4698, 24 h.
Experiment [5] is described as follows: Antifungal activity against Candida mycoderma ATCC9888 assessed as growth inhibition incubated at 35 degC for 24 hrs by micro broth dilution method. To be noted: Kregervanrija fluxuum.
The test system of the next experiment is Saccharomyces cerevisiae. The experiment in a line: Antifungal activity against Saccharomyces cerevisiae ATCC9763 assessed as growth inhibition incubated at 35 degC for 24 hrs by micro broth dilution method. To be noted: ATCC9763, 24 h.
A further experiment has as its system Candida albicans. The experiment in a line: Antifungal activity against Candida albicans ATCC10231 assessed as growth inhibition incubated at 35 degC for 24 hrs by micro broth dilution method. To be noted: ATCC10231, 24 h.
The test system of another experiment is Aspergillus flavus. Briefly: Antifungal activity against Aspergillus flavus ATCC204304 assessed as growth inhibition incubated at 35 degC for 24 hrs by micro broth dilution method. The note with it: ATCC204304, 24 h.
In another experiment the test system is Cyberlindnera jadinii. Briefly: Antifungal activity against Candida utilis ATCC9950 assessed as growth inhibition incubated at 35 degC for 24 hrs by micro broth dilution method. To be noted: Williopsis jadinii, ATCC9950, 24 h.

Values after ≈ are worked out from the molar mass of the structure shown.

As to `CCn1cc(C(=O)O)c(=O)c2cc(F)c(N3CCNCC3)cc21` [NORFLOXACIN], the MIC (commonly the least concentration at which growth counts as inhibited) stood at 4 µg/mL (≈ 12.5 µM) in the experiment on Pseudomonas aeruginosa; 2 µg/mL (≈ 6.26 µM) in the experiment with Staphylococcus aureus [1]; 2 µg/mL (≈ 6.26 µM) in the experiment with Staphylococcus aureus [2]; 1 µg/mL (≈ 3.13 µM) in the experiment on Bacillus subtilis; 1 µg/mL (≈ 3.13 µM) in experiment [3]; 2 µg/mL (≈ 6.26 µM) in the experiment with Escherichia coli. The MIC was 8 µg/mL (≈ 25.1 µM) in [4] and 2 µg/mL (≈ 6.26 µM) with Micrococcus luteus.
Take `O=C(O)c1cn(C2CC2)c2c(Cl)c(N3CCC(NCC(O)Cn4cnc(S)n4)C3)c(F)cc2c1=O` (stereo not drawn): the MIC with Pseudomonas aeruginosa was determined as 4 µg/mL (≈ 7.65 µM); in the experiment on Staphylococcus aureus [1], 0.5 µg/mL (≈ 0.956 µM); in the experiment with Staphylococcus aureus [2], 4 µg/mL (≈ 7.65 µM); in the experiment with Bacillus subtilis it was 0.5 µg/mL (≈ 0.956 µM); in experiment [3], 0.5 µg/mL (≈ 0.956 µM); in the experiment on Escherichia coli it was 1 µg/mL (≈ 1.91 µM). For the same compound, the MIC in [4] amounted to 1 µg/mL (≈ 1.91 µM); in the experiment with Micrococcus luteus it was 2 µg/mL (≈ 3.82 µM). In addition, the MIC80 (as a rule, an inhibitory concentration at the 80% level, which refers to growth in some studies and to a panel of isolates in others) in experiment [5] worked out at 8 µg/mL (≈ 15.3 µM); in the experiment on Saccharomyces cerevisiae it was 8 µg/mL (≈ 15.3 µM); in the experiment with Candida albicans, 2 µg/mL (≈ 3.82 µM); in the experiment on Aspergillus flavus, 8 µg/mL (≈ 15.3 µM); in the experiment on Cyberlindnera jadinii, 4 µg/mL (≈ 7.65 µM).
In the case of `NC1CCN(c2c(F)cc3c(=O)c(C(=O)O)cn(C4CC4)c3c2Cl)C1` (stereo not drawn) [CLINAFLOXACIN], the MIC turned out to be 1 µg/mL (≈ 2.73 µM) with Pseudomonas aeruginosa; 0.5 µg/mL (≈ 1.37 µM) with Staphylococcus aureus [1]; 1 µg/mL (≈ 2.73 µM) in the experiment with Staphylococcus aureus [2]; 0.5 µg/mL (≈ 1.37 µM) in the experiment with Bacillus subtilis; 1 µg/mL (≈ 2.73 µM) in [3]; 1 µg/mL (≈ 2.73 µM) with Escherichia coli. Besides, the MIC (in experiment [4]; in the experiment on Micrococcus luteus) was 0.5 µg/mL (≈ 1.37 µM) in each case.
For `Cn1nnnc1SCC(O)CN1CCN(c2cc3c(cc2F)c(=O)c(C(=O)O)cn3C2CC2)CC1` (stereo not drawn), the MIC in the experiment with Pseudomonas aeruginosa came out at 16 µg/mL (≈ 31.8 µM); with Bacillus subtilis it was 8 µg/mL (≈ 15.9 µM); in the experiment with Escherichia coli it was 8 µg/mL (≈ 15.9 µM); in experiment [4] it was 4 µg/mL (≈ 7.94 µM); in the experiment on Micrococcus luteus, 8 µg/mL (≈ 15.9 µM). In addition, the MIC80 in [5] is 16 µg/mL (≈ 31.8 µM); with Saccharomyces cerevisiae, 8 µg/mL (≈ 15.9 µM); in the experiment with Candida albicans, 8 µg/mL (≈ 15.9 µM); in the experiment on Aspergillus flavus, 8 µg/mL (≈ 15.9 µM); in the experiment with Cyberlindnera jadinii it was 256 µg/mL (≈ 508 µM).
Take `Sc1ncn(Cc2ccc(Cl)cc2Cl)n1`: the MIC amounted to 256 µg/mL (≈ 984 µM) in the experiment on Pseudomonas aeruginosa; 512 µg/mL (≈ 1970 µM) with Staphylococcus aureus [1]; 128 µg/mL (≈ 492 µM) with Staphylococcus aureus [2]; 512 µg/mL (≈ 1970 µM) in the experiment with Bacillus subtilis; 256 µg/mL (≈ 984 µM) in [3]; 256 µg/mL (≈ 984 µM) in the experiment on Escherichia coli. The MIC in [4] worked out at 512 µg/mL (≈ 1970 µM); with Micrococcus luteus it was 128 µg/mL (≈ 492 µM). The MIC80 in experiment [5] stood at 128 µg/mL (≈ 492 µM); in the experiment on Saccharomyces cerevisiae it was 512 µg/mL (≈ 1970 µM); in the experiment on Candida albicans, 512 µg/mL (≈ 1970 µM); in the experiment with Aspergillus flavus it was 256 µg/mL (≈ 984 µM); with Cyberlindnera jadinii, 512 µg/mL (≈ 1970 µM).
As for `CCn1cc(C(=O)O)c(=O)c2cc(F)c(N3CCN(CC(O)CSc4ncn(Cc5ccc(Cl)cc5Cl)n4)CC3)cc21` (stereo not drawn), the MIC was determined as 16 µg/mL (≈ 25.2 µM) in the experiment on Pseudomonas aeruginosa; 2 µg/mL (≈ 3.15 µM) with Staphylococcus aureus [1]; 2 µg/mL (≈ 3.15 µM) in the experiment with Staphylococcus aureus [2]; 64 µg/mL (≈ 101 µM) in the experiment with Bacillus subtilis; 32 µg/mL (≈ 50.4 µM) in experiment [3]; 8 µg/mL (≈ 12.6 µM) with Escherichia coli. Besides, the MIC stood at 4 µg/mL (≈ 6.29 µM) in [4] and 64 µg/mL (≈ 101 µM) in the experiment on Micrococcus luteus. Further, the MIC80 was determined as 64 µg/mL (≈ 101 µM) in experiment [5]; 16 µg/mL (≈ 25.2 µM) in the experiment on Saccharomyces cerevisiae; 64 µg/mL (≈ 101 µM) in the experiment with Candida albicans; 4 µg/mL (≈ 6.29 µM) with Aspergillus flavus; 64 µg/mL (≈ 101 µM) with Cyberlindnera jadinii.
As for `O=C(O)c1cn(C2CC2)c2cc(N3CCNCC3)c(F)cc2c1=O` [CIPROFLOXACIN], the MIC (in the experiment with Pseudomonas aeruginosa; with Bacillus subtilis; in experiment [3]; in experiment [4]) was 1 µg/mL (≈ 3.02 µM) each time.
For the compound `CCn1cc(C(=O)O)c(=O)c2cc(F)c(N3CCN(CC(O)CSc4nccn4C)CC3)cc21` (stereo not drawn), the MIC in the experiment on Pseudomonas aeruginosa was 64 µg/mL (≈ 131 µM); in the experiment on Staphylococcus aureus [1], 16 µg/mL (≈ 32.7 µM); in the experiment on Staphylococcus aureus [2] it was 64 µg/mL (≈ 131 µM); in the experiment on Bacillus subtilis it was 16 µg/mL (≈ 32.7 µM); in experiment [3], 16 µg/mL (≈ 32.7 µM); in the experiment with Escherichia coli, 8 µg/mL (≈ 16.3 µM). The MIC turned out to be 64 µg/mL (≈ 131 µM) in [4] and 32 µg/mL (≈ 65.4 µM) in the experiment with Micrococcus luteus. For the same compound, the MIC80 in [5] is 64 µg/mL (≈ 131 µM); in the experiment with Saccharomyces cerevisiae it was 128 µg/mL (≈ 261 µM); in the experiment on Candida albicans it was 16 µg/mL (≈ 32.7 µM); in the experiment on Aspergillus flavus, 256 µg/mL (≈ 523 µM); in the experiment on Cyberlindnera jadinii, 64 µg/mL (≈ 131 µM).
For the compound `O=C(O)c1cn(C2CC2)c2c(Cl)c(N3CCC(NCC4CO4)C3)c(F)cc2c1=O` (stereo not drawn), the MIC in the experiment with Pseudomonas aeruginosa turned out to be 0.5 µg/mL (≈ 1.19 µM); in the experiment with Staphylococcus aureus [1], 0.5 µg/mL (≈ 1.19 µM); in the experiment with Bacillus subtilis it was 0.25 µg/mL (≈ 0.593 µM); in the experiment on Escherichia coli, 0.5 µg/mL (≈ 1.19 µM); in [4] it was 0.25 µg/mL (≈ 0.593 µM); with Micrococcus luteus it was 0.25 µg/mL (≈ 0.593 µM). The MIC80 is 2 µg/mL (≈ 4.74 µM) in experiment [5]; 0.25 µg/mL (≈ 0.593 µM) with Saccharomyces cerevisiae; 2 µg/mL (≈ 4.74 µM) in the experiment with Candida albicans; 0.5 µg/mL (≈ 1.19 µM) in the experiment with Aspergillus flavus; 4 µg/mL (≈ 9.48 µM) with Cyberlindnera jadinii.

Values taken from ChEMBL document CHEMBL3739277, “Design, synthesis, and antibacterial evaluation of novel azolylthioether quinolones as MRSA DNA intercalators” (2015).
